# Source: patent publication US20120171305A1, “Response Prediction in Cancer Treatment Involving p53 Adapted Cancer Therapy” (priority 2011, published 2012)
# Tested on: stage III colon cancer
# Test: Studie 90: fluorouracil-based adjuvant chemotherapy, survival by TP53 genotype
# Format: in vivo, human
# Conditions: for five-years survival rate: low risk patients (1-3 positive lymph nodes)
# Excerpt: Tumor specimens were collected from 411 patients enrolled in a randomised trial of fluorouracil-based adjuvant chemotherapy for stage III colon cancer patients.
# Fluorouracil acts according to pathway 1 and is supposed to need a normal p53 for induction of apoptosis. The p53 gene status could be assessed in 389 tumors through standardized, gene specific sequencing of the TP53 gene.
structure (smiles),measurement,setting,value
O=c1[nH]cc(F)c(=O)[nH]1 [fluorouracil],five-year survival,entire stage IIIA cohort,84.5%
same,interaction between survival and TP53 genotype,high-risk stage III patients,no interaction
same,five-years survival rate,TP53 mutated,64.7%
same,five-years survival rate,normal TP53 genotype,81%
same,interaction with TP53 genotype,"mutant TP53 genotype, low-risk stage III patients",negatively interacts
same,interaction with TP53 genotype,"normal p53 genotype, low risk stage III patients (N1 or IIIA and IIIB stage)",positively interacts
same,five-year survival,"stage IIIA, TP53 mutant",78%
same,five-year survival,"stage IIIA, TP53 normal",91%
same,five-year survival,stage IIIB cohort,63%
same,five-year survival,"stage IIIB, TP53 mutant",60%
same,five-year survival,"stage IIIB, TP53 normal",79%
same,benefit in relation to the TP53 genotype,stage IIIC patients,no differential benefit
